Patent publication US20170008888A1 (KYORIN PHARMACEUTICAL CO., LTD., priority 2014, published 2017)
Where two headings read alike, the source gives them in different places.

Key:
Assay type in all cases: cell-based
[1] = test system: primary asthmatic human bronchial epithelial cells; experiment: IL-17A- or IL-17F-mediated cytokine response by primary asthmatic human bronchial epithelial cells; conditions: Epithelial cell, 48 h, 48 h
Experimental: The virally immortalized, normal human bronchial epithelial cell line BEAS-2B was purchased from ATCC (Manassas, Va.). Primary bronchial epithelial cells isolated from a patient diagnosed with asthma were obtained from Lonza (Allendale, N.J.). Both cells were maintained in complete Bronchial Epithelial Cell Growth Medium (BEGM) (Lonza). Cells were seeded at 1e5 cells/ml and incubated at 37° C. in a humidified atmosphere at 5% CO2 overnight to adhere. Cells were pre-treated with test compounds (10 μM down by ⅕ in a 3- or 4-point serial dilution series) for 1 h at 37° C. in a humidified atmosphere at 5% CO2. DMSO at a final concentration of 0.1% served as the non-inhibited control. Budesonide (Selleck Chemicals, Houston, Tex.), a clinically approved glucocorticoid steroid for the treatment of asthma, was tested as a positive control at 0.25 μM. Cells were stimulated with 50 ng/ml of either human recombinant IL-17A or IL-17F (eBioscience, San Diego, Calif.), for 48 h. Supernatant was then collected and analyzed for cytokine concentrations using the Bio-Plex Pro Human Cytokine 17-Plex Panel (Bio-Rad Laboratories, Hercules, Calif.) according to the manufacturer's instructions. Magnetic beads were measured on the Bio-Plex MAGPIX multiplex reader instrument using the accompanying xPONENT 4.2 acquisition software (Bio-Rad Laboratories). Data were analyzed via the Bio-Plex Manager software v6.1 (Bio-Rad Laboratories). For the primary asthmatic bronchial epithelial cells, five (+IL-17F) to thirteen (+IL-17A) cytokines were in range of detection under the conditions used. […] Select cytokines were analyzed for comparison using the BEAS-2B cell line.
BLQ: cytokine levels were below limits of quantitation.

[2] = test system: diseased primary human lung fibroblasts; experiment: Cytokine response by primary diseased human lung fibroblasts stimulated with IL-17A or IL-17F; conditions: Fibroblast, 48 h
Experimental: Primary lung fibroblasts isolated from a patient diagnosed with asthma were obtained from Lonza (Allendale, N.J.) and maintained in FGM-2 fibroblast growth medium (Lonza). Cells were seeded at 1e5 cells/ml and incubated at 37° C. in a humidified atmosphere at 5% CO2 overnight to adhere. Cells were pre-treated with test compounds (10 μM down by ⅕ in a 3- or 4-point serial dilution series) for 1 h at 37° C. in a humidified atmosphere at 5% CO2. DMSO at a final concentration of 0.1% served as the non-inhibited control. Cells were stimulated with 50 ng/ml of either human recombinant IL-17A or IL-17F (eBioscience, San Diego, Calif.), for 48 h. Supernatant was then collected and analyzed for cytokine concentrations using the Bio-Plex Pro Human Cytokine 17-Plex Panel (Bio-Rad Laboratories, Hercules, Calif.) according to the manufacturer's instructions. Magnetic beads were measured on the Bio-Plex MAGPIX multiplex reader instrument using the accompanying xPONENT 4.2 acquisition software (Bio-Rad Laboratories). Data were analyzed via the Bio-Plex Manager software v6.1 (Bio-Rad Laboratories). Only four (+IL-17F) to six (+IL-17A) cytokines were in range of detection under the conditions used.
G-CSF concentrations were below the limit of detection when cells were stimulated with IL-17F.

human CD4+ T cells = experiment: Cytokines produced by human CD4+ T cells stimulated with PMA/ionomycin; conditions: 10 μM compound, PMA/ionomycin 20 h
Excerpt: Freshly isolated human peripheral blood mononuclear cells (PBMCs) were purchased from Astarte Biologics (Redmond, Wash.). CD4+ T cells were isolated from the PBMCs using the EasySep Negative Selection Human CD4+ T Cell Enrichment Kit (Stemcell Technologies, Vancouver, Canada) according to manufacturer's instructions briefly as follows: Unwanted cells were specifically labeled with a cocktail of bispecific tetrameric antibody complexes (TAC) against dextran and cell surface antigens (CD8, CD14, CD16, CD19, CD20, CD36, CD56, CD66b, CD123, TCRγ/δ, glycophorin A). Labeled cells were then targeted for removal by incubation with dextran-coated magnetic particles, leaving the desired CD4+ T cells.
Human CD4+ T cells, isolated as shown in protocol A, were seeded at 2e6 cells/ml in RPMI 1640 containing 10% (v/v) charcoal-dextran treated, heat inactivated FBS (Omega Scientific, Tarzana, Calif.), 0.05 mM 2-Mercaptoethanol (Sigma-Aldrich, St. Louis, Mo.), and 1×Pen/Strep Amphotericin B (Lonza, Allendale, N.J.). Cells were pre-treated with test compounds (10 μM) for 1 h at 37° C. in a humidified atmosphere at 5% CO2. Cells were then stimulated with 50 ng/ml phorbol 12-myristate 13-acetate (PMA)(Sigma-Aldrich, St. Louis, Mo.)+1 μg/ml ionomycin (Life Technologies, Grand Island, N.Y.) for 20 h at 37° C. in a humidified atmosphere at 5% CO2. Supernatant was collected and analyzed using Bio-Plex Pro Human Th17 Cytokine 15-Plex Panel (Bio-Rad Laboratories, Hercules, Calif.) as per manufacturer's protocols. Magnetic beads were read on the Bio-Plex MAGPIX multiplex reader instrument using the accompanying xPONENT 4.2 acquisition software (Bio-Rad Laboratories, Hercules, Calif.). Data were analyzed via the Bio-Plex Manager software v6.1 (Bio-Rad Laboratories).
IL-1β, IL-2, IL-7, and IL-12 (p70) were below the limit of detection under conditions used. The concentrations of the observed analytes of the DMSO control, from top to bottom as listed, are as follows: 31, 585, 24178, 22, 48, 91, 728, 94, 156, 705, 15, 1045, 5501 pg/ml.

[3] = +50 ng/ml IL-17A, read-out: EC50 values (μM), G-CSF
[4] = +50 ng/ml IL-17A, read-out: EC50 values (μM), GM-CSF
[5] = +50 ng/ml IL-17A, read-out: EC50 values (μM), IFN-γ
[6] = +50 ng/ml IL-17A, read-out: EC50 values (μM), IL-1β
[7] = +50 ng/ml IL-17A, read-out: EC50 values (μM), IL-2
[8] = +50 ng/ml IL-17A, read-out: EC50 values (μM), IL-6
[9] = +50 ng/ml IL-17A, read-out: EC50 values (μM), IL-8
[10] = +50 ng/ml IL-17A, read-out: EC50 values (μM), MCP-1
[11] = +50 ng/ml IL-17F, read-out: EC50 values (μM), G-CSF
[12] = +50 ng/ml IL-17F, read-out: EC50 values (μM), IFN-γ
[13] = +50 ng/ml IL-17F, read-out: EC50 values (μM), IL-1β
[14] = +50 ng/ml IL-17F, read-out: EC50 values (μM), IL-6
[15] = +50 ng/ml IL-17F, read-out: EC50 values (μM), IL-8
[16] = +50 ng/ml IL-17F, read-out: EC50 values (μM), MCP-1
[17] = read-out: Percent inhibition of G-CSF (relative to DMSO control)
[18] = read-out: Percent inhibition of GM-CSF (relative to DMSO control)
[19] = read-out: Percent inhibition of IFNγ (relative to DMSO control)
[20] = read-out: Percent inhibition of IL-4 (relative to DMSO control)
[21] = read-out: Percent inhibition of IL-5 (relative to DMSO control)
[22] = read-out: Percent inhibition of IL-6 (relative to DMSO control)
[23] = read-out: Percent inhibition of IL-10 (relative to DMSO control)
[24] = read-out: Percent inhibition of IL-13 (relative to DMSO control)
[25] = read-out: Percent inhibition of IL-17A (relative to DMSO control)
[26] = read-out: Percent inhibition of MCP-1 (relative to DMSO control)
[27] = read-out: Percent inhibition of MIP-1β (relative to DMSO control)
[28] = read-out: Percent inhibition of TNFα (relative to DMSO control)
[29] = read-out: Percent inhibition of IL-8 (relative to DMSO control)

Compound | EC50 [1, 3] [µM] | EC50 [1, 4] [µM] | EC50 [1, 5] [µM] | EC50 [1, 6] [µM] | EC50 [1, 7] [µM] | EC50 [1, 8] [µM] | EC50 [1, 9] [µM] | inhibition at 10 µM (human CD4+ T cells; [17]) [%] | inhibition at 10 µM (human CD4+ T cells; [18]) [%] | inhibition at 10 µM (human CD4+ T cells; [19]) [%] | inhibition at 10 µM (human CD4+ T cells; [20]) [%] | inhibition at 10 µM (human CD4+ T cells; [21]) [%] | inhibition at 10 µM (human CD4+ T cells; [22]) [%] | inhibition at 10 µM (human CD4+ T cells; [23]) [%] | inhibition at 10 µM (human CD4+ T cells; [24]) [%] | inhibition at 10 µM (human CD4+ T cells; [25]) [%] | inhibition at 10 µM (human CD4+ T cells; [26]) [%] | inhibition at 10 µM (human CD4+ T cells; [27]) [%] | inhibition at 10 µM (human CD4+ T cells; [28]) [%] | inhibition at 10 µM (human CD4+ T cells; [29]) [%] | also measured
CCOc1cc(C(=O)N2CCC(N3CCN(C)CC3)CC2)ccc1Nc1cc2c(cn1)N(C)C(=O)c1occc1N2C [Compound 65] | 2.68 | 4.06 | > 10 | 1.57 | > 10 | 0.56 | 0.63 | 36.1 | 89.5 | 12.3 | 10.1 | 47.7 | 87.7 | 98 | 18.3 | 39.3 | 64.2 | 55.8 | 56.9 |  | EC50 [1, 10]: > 10 µM; EC50 [1, 11]: 1.77 µM; EC50 [1, 12]: 1.98 µM; EC50 [1, 13]: 1.57 µM; EC50 [1, 14]: 0.59 µM; EC50 [1, 15]: 1.27 µM; EC50 [2, 3]: 3.5 µM; EC50 [2, 8]: 5.69 µM; EC50 [2, 9]: 0.48 µM; EC50 [2, 10]: 1.31 µM; EC50 [2, 14]: 2.49 µM; EC50 [2, 15]: 0.52 µM; EC50 [2, 16]: 1.85 µM
CCOc1cc(C(=O)NCC2CC2)ccc1Nc1cc2c(cn1)N(C)C(=O)c1ccccc1N2C [Compound 57] |  |  |  |  |  |  |  | 34.5 | 95.9 | 50.9 | 31.4 | 42.8 | 91.1 | 97.7 | 55.6 | 78.8 | 70.6 | 56.2 | 58.3 | -44.1 | 
CCOc1cc(C(=O)N2CCC(N3CCCC3)CC2)ccc1Nc1cc2c(cn1)N(C)C(=O)c1ccccc1N2C [Compound 46, 3-(2-Ethoxy-4-(4-(pyrrolidin-1-yl)piperidine-1-carbonyl)phenylamino)-5,11-dimethyl-5H-benzo[e]pyrido[3,4-b][1,4]diazepin-10(11H)-one] |  |  |  |  |  |  |  | 26.4 | 96.7 | 18.3 | 11.7 | 49.1 | 89.3 | 97.3 | 32.1 | 52.2 | 67.6 | 63.9 | 64 | -109 | 
CCOc1cc(C(=O)N2CC[C@@H](N(C)C)C2)ccc1Nc1cc2c(cn1)N(C)C(=O)c1ccccc1N2C [Compound 115] | 0.66 | 1.39 | > 10 | 0.95 | 5.31 | 0.16 | 0.15 |  |  |  |  |  |  |  |  |  |  |  |  |  | EC50 [1, 10]: 6.1 µM; EC50 [1, 11]: 0.21 µM; EC50 [1, 12]: 0.34 µM; EC50 [1, 13]: 0.38 µM; EC50 [1, 14]: 0.34 µM; EC50 [1, 15]: 0.28 µM; EC50 [2, 3]: 0.86 µM; EC50 [2, 8]: 1.16 µM; EC50 [2, 9]: < 0.08 µM; EC50 [2, 10]: 0.35 µM; EC50 [2, 14]: 0.95 µM; EC50 [2, 15]: < 0.08 µM; EC50 [2, 16]: 0.36 µM
CCOc1cc(C(=O)N2CCNCC2)ccc1Nc1cc2c(cn1)N(C)C(=O)c1ccccc1N2C [Compound 62] |  |  |  |  |  |  |  | 27.6 | 95.4 | 15.6 | -4.8 | 29.7 | 86.9 | 97.2 | 19.8 | 49.7 | 66.1 | 66.9 | 70.1 | -179 | 
